Source: US10849847B2, “Compositions and methods for treating rosacea and acne” (Foamix Pharmaceuticals Ltd., priority 2016, dated 2020)
Like-named read-outs stand apart in the source and are kept apart here.

How the values were obtained:
[1] = cited from earlier work
[2] = Doxycycline Monohydrate Compatibility Test; assay type: physicochemical
[3] = Description: The ratio between MCH and the tested excipient is detailed below. Visual inspection was the major criterion for indication of compatibility. The color of intact MCH suspension is pale yellow; and any change of color (e.g., to dark orange, red, green, brown and black) indicates oxidation or degradation.
Other than hydrogenated castor oil, beeswax, paraffin and hard fat, the aforesaid items listed are oily emollients.
Additives were tested for compatibility with MCH. […] In parallel, antioxidants were added to the MCH suspensions comprising water.

[4] = Doxycycline Hyclate Compatibility Test; assay type: physicochemical
Description: (§1) A similar compatibility study was conducted for Doxycycline Hyclate and Doxycycline Monohydrate.
(§2) Different compositions of hydrophilic and hydrophobic solvents containing Doxycycline Hyclate (Set I and Set II) and Doxycycline Monohydrate (Set III) were prepared by weighing the antibiotic in a glass vial and shaking overnight with each solvent investigated.
Group II included Doxycycline Hyclate mixed with various vehicles with addition of antioxidants like alpha tocopherol, butylated hydroxytoluene (BHT), and ascorbic acid.

[5] = Doxycycline Monohydrate Compatibility Test; assay type: physicochemical; remark: listed apart in the source
Description: as §1, §2
A similar compatibility test was performed on another form of Doxycycline—Doxycycline Monohydrate.

[6] = in vitro; cited from earlier work
[7] = tested after the storage for up to 3 weeks
[8] = mixtures stored at 25° C., 40° C. and 50° C. for two weeks

Question: For Doxycycline hyclate, which Lipid solubility [1] is on record?
Answer: high degree of lipid solubility

Question: And the Solubility ([1]; in solutions of alkali hydroxides and carbonates)?
Answer: soluble

Question: What about the Solubility ([1]; in water) of the same compound?
Answer: soluble

Question: Which “Compatibility Results” value ([2]; Mixtures of 1.04% w/w of Doxycycline Monohydrate stored at 25° C., 40° C., and 50° C. for two weeks) does the source give for `CCO` [Ethanol] here?
Answer: Non compatible

Question: What about the “Visual inspection after the storage at 25° C.” value ([2]; Mixtures of 1.04% w/w of Doxycycline Monohydrate, 25° C., two weeks) of the same compound?
Answer: Brown

Question: What about the “Visual inspection after the storage at 40° C.” value ([2]; Mixtures of 1.04% w/w of Doxycycline Monohydrate, 40° C., two weeks) of the same compound?
Answer: Brown

Question: What about the “Visual inspection after the storage at 50° C.” value ([2]; Mixtures of 1.04% w/w of Doxycycline Monohydrate, 50° C., two weeks) of the same compound?
Answer: Black

Question: What about the “Visual inspection at T-0” value ([2]; Mixtures of 1.04% w/w of Doxycycline Monohydrate, T-0) of the same compound?
Answer: bright yellow

Question: And the “Compatibility with MCH” value ([3]; hydrophilic solvents, MCH:excipient 1:250, 25° C. and 40° C., maximum sixty days)?
Answer: incompatible

Question: And the “Compatibility with Minocycline HCl (observations)” value ([3]; on dissolution / storage)?
Answer: changed their color from yellow to orange

Question: What about the “Compatibility with Minocycline HCl” value [3, 7] of the same compound?
Answer: No

Question: What about the “Compatibility with Doxycycline Hyclate” value [4, 8] of the same compound?
Answer: stable

Question: And the “Compatibility with Doxycycline Hyclate” value [4, 7]?
Answer: Yes

Question: And the “Compatibility with Doxycycline Monohydrate” value [5, 8]?
Answer: oxidized

Question: And the “Compatibility with Doxycycline Monohydrate” value [5, 7]?
Answer: No

Question: With `CN(C)c1ccc(O)c2c1C[C@H]1C[C@H]3[C@H](N(C)C)C(O)=C(C(N)=O)C(=O)[C@@]3(O)C(O)=C1C2=O` [minocycline] as the compound, how does the “Skin delivery of minocycline on topical administration” value [6] read?
Answer: appreciable amounts of the drug to its target site of action (the skin)
